# Source: patent US11020398B2, “Amino-pyrrolopyrimidinone compounds and methods of use thereof” (ArQule, Inc., priority 2016, dated 2021)
# pIC50: −log10 of the molar value.
# Legend:
# [1] = molecular target: full-length activated BTK (wildtype) (Homo sapiens (Human), UniProt Q06187); assay: AlphaScreen assay, wild-type BTK; assay type: biochemical
# Protocol: (§1) The activated BTK was frozen in 50 μl aliquots (125-150 μg/ml).
# (§2) BTK activity was assayed using a PLCγ2-derived biotinylated peptide substrate (biotin-[…]-OH) and AlphaScreen™ (Amplified Luminescent Proximity Homogeneous Assay) technology. The extent of peptide phosphorylation was determined by using acceptor beads conjugated to phosphotyrosine antibody that recognized the phosphorylated peptide and donor beads conjugated to streptavidin that binds to the biotin on the peptide. Excitation of the donor beads converted ambient oxygen to excited singlet oxygen which when in close proximity to acceptor beads, reacted with acceptor beads resulting in signal amplification.
# (§3) Test inhibitors and controls were prepared in 10% DMSO at 10-fold the desired final concentration and added to each well of a reaction plate (Corning 96-well half-area solid white nonbinding surface plate) in a volume of 2.5 μl. […] The plate was incubated for 120 min at room temperature and the reaction stopped by the addition of 10 μl stop/detection mixture containing 35 mM EDTA, 50 ug/ml AlphaScreen™ Streptavidin Donor beads (final concentration is 500 ng/well) and AlphaScreen™ Phospho-tyrosine (P-Tyr-100) Acceptor beads (final concentration is 500 ng/well) under green light conditions. The plate was incubated overnight at room temperature in the dark and the plates read on the BMG PolarStar Omega ([…], Gain=4000). Data were archived and analyzed with a 4-parameter fit to generate IC50 values using the CDD Vault from Collaborative Drug Discovery.
# [2] = molecular target: full-length activated BTK mutant C481S (Homo sapiens (Human), UniProt Q06187, C481S); assay: AlphaScreen assay, BTK mutant C481S; assay type: biochemical
# full-length activated BTK mutant C481S, sequence (Q06187 whole entry C481S): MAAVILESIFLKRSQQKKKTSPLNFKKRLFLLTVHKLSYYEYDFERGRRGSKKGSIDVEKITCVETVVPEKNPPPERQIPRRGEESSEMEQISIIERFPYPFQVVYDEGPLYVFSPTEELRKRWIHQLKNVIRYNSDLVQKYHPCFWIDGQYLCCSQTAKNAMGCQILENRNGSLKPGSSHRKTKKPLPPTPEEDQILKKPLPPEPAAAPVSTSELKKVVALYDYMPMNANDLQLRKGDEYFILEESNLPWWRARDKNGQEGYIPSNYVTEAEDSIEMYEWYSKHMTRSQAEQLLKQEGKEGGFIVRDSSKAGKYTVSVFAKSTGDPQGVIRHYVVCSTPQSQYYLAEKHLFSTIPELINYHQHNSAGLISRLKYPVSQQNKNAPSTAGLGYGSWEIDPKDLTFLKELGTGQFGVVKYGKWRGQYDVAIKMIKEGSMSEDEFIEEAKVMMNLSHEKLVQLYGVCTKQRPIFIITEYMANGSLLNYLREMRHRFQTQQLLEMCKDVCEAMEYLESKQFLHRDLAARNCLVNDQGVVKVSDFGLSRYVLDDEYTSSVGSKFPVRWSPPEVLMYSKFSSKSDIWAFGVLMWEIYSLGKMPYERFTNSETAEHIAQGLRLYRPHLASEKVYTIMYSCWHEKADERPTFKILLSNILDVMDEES
# Protocol: as §1, §2, §3
# full-length activated BTK (wildtype), sequence (Q06187 whole entry): as the sequence (Q06187 whole entry C481S) above, with S481C counted along it
pIC50 [1],pIC50 [2],SMILES
7.70,6.86,"O=C(c1ccc(Oc2ccccc2)cc1Cl)c1c[nH]c2ncnc(NC[C@H]3CN[C@H](CO)C3)c12 [Compound I-369e, (2-chloro-4-phenoxyphenyl)(4-((((3R,5S)-5-(hydroxymethyl)pyrrolidin-3-yl)methyl)amino)-7H-pyrrolo[2,3-d]pyrimidin-5-yl)methanone]"
7.23,7.30,"CN1C[C@H](CNc2ncnc3[nH]cc(C(=O)c4ccc(Oc5ccccc5)cc4Cl)c23)C[C@H]1CO [Compound I-370e, (2-chloro-4-phenoxyphenyl)(4-((((3S,5S)-5-(hydroxymethyl)-1-methylpyrrolidin-3-yl)methyl)amino)-7H-pyrrolo[2,3-d]pyrimidin-5-yl)methanone]"
7.68,6.94,"O=C(Nc1ccc(Cl)c(C(=O)c2c[nH]c3ncnc(N[C@@H]4CC[C@@H](CO)OC4)c23)c1)c1ccccc1 [Compound I-601, N-(4-chloro-3-(4-(((3R,6S)-6-(hydroxymethyl)tetrahydro-2H-pyran-3-yl)amino)-7H-pyrrolo[2,3-d]pyrimidine-5-carbonyl)phenyl)benzamide]"
6.85,6.50,"O=C(Cc1ccccc1)Nc1ccc(Cl)c(C(=O)c2c[nH]c3ncnc(N[C@@H]4CC[C@@H](CO)OC4)c23)c1 [Compound I-602, N-(4-chloro-3-(4-(((3R,6S)-6-(hydroxymethyl)tetrahydro-2H-pyran-3-yl)amino)-7H-pyrrolo[2,3-d]pyrimidine-5-carbonyl)phenyl)-2-phenylacetamide]"
6.33,5.75,"O=C(c1cc(NC(=O)C2CCOCC2)ccc1Cl)c1c[nH]c2ncnc(N[C@@H]3CC[C@@H](CO)OC3)c12 [Compound I-603, N-(4-chloro-3-(4-(((3R,6S)-6-(hydroxymethyl)tetrahydro-2H-pyran-3-yl)amino)-7H-pyrrolo[2,3-d]pyrimidine-5-carbonyl)phenyl)tetrahydro-2H-pyran-4-carboxamide]"
6.52,6.14,"O=C(Nc1ccc(Cl)c(C(=O)c2c[nH]c3ncnc(N[C@@H]4CC[C@@H](CO)OC4)c23)c1)c1cncs1 [Compound I-604, N-(4-chloro-3-(4-(((3R,6S)-6-(hydroxymethyl)tetrahydro-2H-pyran-3-yl)amino)-7H-pyrrolo[2,3-d]pyrimidine-5-carbonyl)phenyl)thiazole-5-carboxamide]"
6.33,5.73,"O=C(c1cc(NC(=O)C2(c3ccccc3)CC2)ccc1Cl)c1c[nH]c2ncnc(N[C@@H]3CC[C@@H](CO)OC3)c12 [Compound I-605, N-(4-chloro-3-(4-(((3R,6S)-6-(hydroxymethyl)tetrahydro-2H-pyran-3-yl)amino)-7H-pyrrolo[2,3-d]pyrimidine-5-carbonyl)phenyl)-1-phenylcyclopropane-1-carboxamide]"
9.01,7.25,"O=C(Nc1ccc(Cl)c(C(=O)c2c[nH]c3ncnc(N[C@@H]4CC[C@@H](CO)OC4)c23)c1)c1cc2c(cn1)CCCC2 [Compound I-606, N-(4-chloro-3-(4-(((3R,6S)-6-(hydroxymethyl)tetrahydro-2H-pyran-3-yl)amino)-7H-pyrrolo[2,3-d]pyrimidine-5-carbonyl)phenyl)-5,6,7,8-tetrahydroisoquinoline-3-carboxamide]"
7.86,6.67,"O=C(Nc1ccc(Cl)c(C(=O)c2c[nH]c3ncnc(N[C@@H]4CC[C@@H](CO)OC4)c23)c1)c1nccc2ccccc12 [Compound I-607, N-(4-chloro-3-(4-(((3R,6S)-6-(hydroxymethyl)tetrahydro-2H-pyran-3-yl)amino)-7H-pyrrolo[2,3-d]pyrimidine-5-carbonyl)phenyl)isoquinoline-1-carboxamide]"
8.09,6.73,"O=C(Nc1ccccc1)Nc1ccc(Cl)c(C(=O)c2c[nH]c3ncnc(N[C@@H]4CC[C@@H](CO)OC4)c23)c1 [Compound I-608, 1-(4-chloro-3-(4-(((3R,6S)-6-(hydroxymethyl)tetrahydro-2H-pyran-3-yl)amino)-7H-pyrrolo[2,3-d]pyrimidine-5-carbonyl)phenyl)-3-phenylurea]"
